Tests used:
Assay type in all cases: in vivo
[1] = test system: Erysiphe graminis f. sp. tritici; assay: Test E: wheat powdery mildew, spray the day before inoculation (disease rating, 100 = 100% disease control); details: spray the day before inoculation, compounds without asterisk (not 40 or 10 ppm)
How it was run: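 Protective test: spores of E. graminis f. sp. tritici dusted on wheat seedlings one day after run-off spraying of test suspension (acetone/water with 250 ppm surfactant; 200 ppm = 500 g/ha). Ratings after 7 days in growth chamber at 20° C, 100 = full control, 0 = none, relative to controls.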

[2] = test system: Pseudoperonospora cubensis; assay: Test F: cucumber downy mildew, DMSO/acetone/water test suspension, spray the day before inoculation (disease rating, 100 = 100% disease control); details: DMSO/acetone/water suspension, spray the day before inoculation, compounds without asterisk
Description: The test compounds were first dissolved in dimethyl sulfoxide (DMSO) in an amount equal to 4% of the final volume and then suspended at the desired concentration (in ppm) in acetone and purified water (30/70 mix by volume). The resulting test suspensions were then used in test F. Spraying a 250 ppm test suspension on the test plants was the equivalent of a rate of 250 g/ha.
The test suspension was sprayed on cucumber seedlings. The following day the seedlings were inoculated with a spore suspension of Pseudoperonospora cubensis (the causal agent of cucumber downy mildew) and incubated in a saturated atmosphere at 20° C. for 24 h, and then moved to a growth chamber at 20° C. for 6 days, after which disease ratings were made.
Results for Tests A-F are given in Table A. In the table, a rating of 100 indicates 100% disease control and a rating of 0 indicates no disease control (relative to the controls). A dash (-) indicates no test results.

[3] = test system: Phytophthora infestans; assay: whole plant or invertebrate; details: tomato late blight; spray the day before inoculation; compounds without asterisk (not 40 or 10 ppm)
[4] = test system: Phytophthora infestans; assay: whole plant or invertebrate; details: tomato late blight; spray 17 h after inoculation; compounds without asterisk (not 40 or 10 ppm)
[5] = test system: Plasmopara viticola; assay: Test B: grape downy mildew, spray 24 h after inoculation (disease rating, 100 = 100% disease control); details: spray 24 h after inoculation, compounds without asterisk (not 40 or 10 ppm)
How it was run: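 This is a curative spray test, applied 24 h after inoculation. Compounds in 50/50 acetone–water with 250 ppm Trem 014 surfactant were sprayed to run-off on P. viticola-infected seedlings, with 200 ppm equating to 500 g/ha. Plants were kept 5 days in a 20 °C growth chamber, then 24 h humid, and scored 0–100 for disease control relative to controls.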

Compound | Test E disease rating (100 = 100% disease control, 0 = no disease control) [1] [%] | Test F disease rating (100 = 100% disease control, 0 = no disease control) [2] [%] | Test C disease rating (100 = 100% disease control, 0 = no disease control) [3] [%] | Test D disease rating (100 = 100% disease control, 0 = no disease control) [4] [%] | Test B disease rating (100 = 100% disease control, 0 = no disease control) [5] [%]
C[C@H](c1ccccc1)N(C)C(=O)c1csc(C2CCN(C(=S)Nc3cccc(C(F)(F)F)c3)CC2)n1 [compound 160] | 0 | 50 | 40 | 0 | 47
COc1ccc(C)cc1CC(=O)N1CCC(c2nc(C(=O)N(C)[C@H](C)c3ccccc3)cs2)CC1 [compound 125] | 94 | 100 | 100 | 99 | 100
Cc1ccc(C)c(CC(=O)N2CCC(c3nc(C(=O)N(C)C(C)c4ccccn4)cs3)CC2)c1 (centres unmarked) [compound 94] | 0 | 93 | 100 | 100 | 0
CC(c1ccccn1)N(C)C(=O)c1csc(C2CCN(C(=O)Cc3cccc(C(F)(F)F)c3)CC2)n1 (centres unmarked) [compound 75] | 0 | 0 | 100 | 72 | 16
Cc1ccc(F)cc1CC(=O)N1CCC(c2nc(C(=O)N(C)[C@H](C)c3ccccc3)cs2)CC1 [compound 80] | 29 | 49 | 100 | 70 | 99
Cc1ccc(C)c(CC(=O)N2CCC(c3nc(C(=O)N(C)[C@H](C)c4ccc(Cl)cc4)cs3)CC2)c1 [compound 60] | 67 | 47 | 93 | 42 | 95
Cc1cc(C(F)(F)F)nn1CC(=O)N1CCC(c2nc(C(=O)N(C)C3CCCc4ccccc43)cs2)CC1 (centres unmarked) [compound 187] | 0 | 93 | 100 | 99 | 98
Cc1ccc(C)c(CC(=O)N2CCC(c3nc(C(=O)N(C)C4CCCC(C)C4)cs3)CC2)c1 (centres unmarked) [compound 176] | 0 | 49 | 95 | 24 | 15
C[C@H](c1ccccc1)N(C)C(=O)c1csc(C2CCN(C(=O)Cc3cc(Cl)ccc3Cl)CC2)n1 [compound 77] | 88 | 50 | 100 | 100 | 100
Cc1ccc(C)c(CC(=O)N2CCC(c3nc(C(=O)N(C)C(C)c4cccnc4)cs3)CC2)c1 (centres unmarked) [compound 95] | 0 | 97 | 100 | 83 | 0

From US8586611B2 (priority 2005, dated 2013)
